Data from ChEMBL document CHEMBL5154842, “Unique Carbazole-Oxadiazole Derivatives as New Potential Antibiotics for Combating Gram-Positive and -Negative Bacteria” (J Med Chem, 2022).
≈ marks a conversion by molar mass, not a printed value. Calls of active or inactive are those of the source. The calls are words filed in the database; no cut-off is given here.

Key:
[1] = tested on: Staphylococcus aureus; assay: Antibacterial activity against methicillin-resistant Staphylococcus aureus N315 assessed as inhibition of bacterial growth incubated for 24 hrs by CLSI protocol based two fold serial dilution method; format: functional
[2] = tested on: Enterococcus faecalis; assay: Antibacterial activity against Enterococcus faecalis assessed as inhibition of bacterial growth incubated for 24 hrs by CLSI protocol based two fold serial dilution method; format: functional
[3] = tested on: Staphylococcus aureus; assay: Antibacterial activity against Staphylococcus aureus assessed as inhibition of bacterial growth incubated for 24 hrs by CLSI protocol based two fold serial dilution method; format: functional
[4] = tested on: Staphylococcus aureus; assay: Antibacterial activity against Staphylococcus aureus 25923 assessed as inhibition of bacterial growth incubated for 24 hrs by CLSI protocol based two fold serial dilution method; format: functional
[5] = tested on: Staphylococcus aureus; assay: Antibacterial activity against Staphylococcus aureus 29213 assessed as inhibition of bacterial growth incubated for 24 hrs by CLSI protocol based two fold serial dilution method; format: functional
[6] = tested on: Klebsiella pneumoniae; assay: Antibacterial activity against Klebsiella pneumonia assessed as inhibition of bacterial growth incubated for 24 hrs by CLSI protocol based two fold serial dilution method; format: functional
[7] = tested on: Escherichia coli; assay: Antibacterial activity against Escherichia coli assessed as inhibition of bacterial growth incubated for 24 hrs by CLSI protocol based two fold serial dilution method; format: functional
[8] = tested on: Escherichia coli; assay: Antibacterial activity against Escherichia coli 25922 assessed as inhibition of bacterial growth incubated for 24 hrs by CLSI protocol based two fold serial dilution method; format: functional
[9] = tested on: Pseudomonas aeruginosa; assay: Antibacterial activity against Pseudomonas aeruginosa assessed as inhibition of bacterial growth incubated for 24 hrs by CLSI protocol based two fold serial dilution method; format: functional
[10] = tested on: Pseudomonas aeruginosa; assay: Antibacterial activity against Pseudomonas aeruginosa ATCC 27853 assessed as inhibition of bacterial growth incubated for 24 hrs by CLSI protocol based two fold serial dilution method; format: functional
[11] = tested on: Acinetobacter baumannii; assay: Antibacterial activity against Acinetobacter baumannii assessed as inhibition of bacterial growth incubated for 24 hrs by CLSI protocol based two fold serial dilution method; format: functional
[12] = tested on: Staphylococcus aureus; assay: Antibacterial activity against methicillin-resistant Staphylococcus aureus N315 assessed as change in susceptibility at sub-MIC treated over 9 serial passages measured after 9 days by resistance development assay; format: functional, organism-based; conditions: time 9.0 day
[13] = tested on: Staphylococcus aureus; assay: Antibacterial activity against methicillin-resistant Staphylococcus aureus N315 assessed as inhibition of bacterial growth at 0.5 to 16 ug/ml measured after 24 hrs by microplate reader assay; format: functional, organism-based; conditions: dose 0.5-16 µg/ml
[14] = Hemolytic activity in human RBC assessed as hemolysis at 1 to 32 ug/ml measured after 60 mins by microplate reader assay relative to control; format: toxicity, cell-based, Erythrocyte; conditions: red blood cells (erythrocytes), at 1 to 32 µg/mL, dose 1-32 µg/ml, read-out: Activity
[15] = tested on: Staphylococcus aureus; assay: Antibacterial activity against methicillin-resistant Staphylococcus aureus N315 assessed as inhibition of bacterial growth at 0.25 to 64 ug/ml incubated for 24 hrs by Alamar blue assay; format: functional, organism-based; conditions: dose 0.25-64 µg/ml

Structure (SMILES)	MIC [1] [µg/mL]	MIC [2] [µg/mL]	MIC [3] [µg/mL]	MIC [4] [µg/mL]	MIC [5] [µg/mL]	MIC [6] [µg/mL]	MIC [7] [µg/mL]	MIC [8] [µg/mL]	MIC [9] [µg/mL]	MIC [10] [µg/mL]	MIC [11] [µg/mL]	Activity [12]	Activity [13]	hemolysis at 1 h [14] [%]	Activity [15]
CCCCOc1cccc2c1c1ccccc1n2Cc1nnc(S)o1	256 (≈ 724 µM)	4 (≈ 11.3 µM)	256 (≈ 724 µM)	256 (≈ 724 µM)	256 (≈ 724 µM)	256 (≈ 724 µM)	256 (≈ 724 µM)	256 (≈ 724 µM)	256 (≈ 724 µM)	256 (≈ 724 µM)	0.25 (≈ 0.707 µM)	–	–	–	–
C=CCSc1nnc2c3ccccc3n(Cc3nnc(S)o3)c2n1	256 (≈ 718 µM)	256 (≈ 718 µM)	256 (≈ 718 µM)	256 (≈ 718 µM)	256 (≈ 718 µM)	256 (≈ 718 µM)	256 (≈ 718 µM)	256 (≈ 718 µM)	256 (≈ 718 µM)	256 (≈ 718 µM)	256 (≈ 718 µM)	–	–	–	–
CCCOc1cccc2c1c1ccccc1n2Cc1nnc(S)o1	2 (≈ 5.89 µM)	2 (≈ 5.89 µM)	128 (≈ 377 µM)	2 (≈ 5.89 µM)	4 (≈ 11.8 µM)	4 (≈ 11.8 µM)	4 (≈ 11.8 µM)	1 (≈ 2.95 µM)	256 (≈ 754 µM)	4 (≈ 11.8 µM)	0.25 (≈ 0.737 µM)	–	–	–	–
CC(C)=CCn1c2ccccc2c2c(OCc3nnn[nH]3)cccc21	16 (≈ 48 µM)	256 (≈ 768 µM)	256 (≈ 768 µM)	64 (≈ 192 µM)	32 (≈ 96 µM)	32 (≈ 96 µM)	32 (≈ 96 µM)	128 (≈ 384 µM)	256 (≈ 768 µM)	0.5 (≈ 1.5 µM)	32 (≈ 96 µM)	–	–	–	–
Sc1nnc(Cn2c3ccccc3c3c(OCCN4CCOCC4)cccc32)o1	128 (≈ 312 µM)	64 (≈ 156 µM)	128 (≈ 312 µM)	128 (≈ 312 µM)	32 (≈ 78 µM)	64 (≈ 156 µM)	64 (≈ 156 µM)	128 (≈ 312 µM)	256 (≈ 624 µM)	64 (≈ 156 µM)	128 (≈ 312 µM)	–	–	–	–
CCSc1nnc2c3ccccc3n(Cc3nnc(S)o3)c2n1	256 (≈ 743 µM)	256 (≈ 743 µM)	256 (≈ 743 µM)	256 (≈ 743 µM)	256 (≈ 743 µM)	256 (≈ 743 µM)	256 (≈ 743 µM)	256 (≈ 743 µM)	256 (≈ 743 µM)	256 (≈ 743 µM)	256 (≈ 743 µM)	–	–	–	–
CCN(CC)CCOc1cccc2c1c1ccccc1n2Cc1nnc(S)o1	128 (≈ 323 µM)	4 (≈ 10.1 µM)	256 (≈ 646 µM)	256 (≈ 646 µM)	256 (≈ 646 µM)	256 (≈ 646 µM)	256 (≈ 646 µM)	256 (≈ 646 µM)	256 (≈ 646 µM)	2 (≈ 5.04 µM)	256 (≈ 646 µM)	–	–	–	–
CCCCCCOc1cccc2c1c1ccccc1n2Cc1nnc(S)o1	256 (≈ 671 µM)	256 (≈ 671 µM)	256 (≈ 671 µM)	256 (≈ 671 µM)	1 (≈ 2.62 µM)	256 (≈ 671 µM)	8 (≈ 21 µM)	4 (≈ 10.5 µM)	256 (≈ 671 µM)	256 (≈ 671 µM)	256 (≈ 671 µM)	–	–	–	–
Fc1cccc(COc2cccc3c2c2ccccc2n3Cc2nnc(S)o2)c1	64 (≈ 158 µM)	32 (≈ 78.9 µM)	128 (≈ 316 µM)	32 (≈ 78.9 µM)	128 (≈ 316 µM)	32 (≈ 78.9 µM)	128 (≈ 316 µM)	16 (≈ 39.5 µM)	256 (≈ 631 µM)	0.5 (≈ 1.23 µM)	64 (≈ 158 µM)	–	–	–	–
Sc1nnc(Cn2c3ccccc3c3c(OCC4CCCC4)cccc32)o1	2 (≈ 5.27 µM)	1 (≈ 2.64 µM)	256 (≈ 675 µM)	4 (≈ 10.5 µM)	0.25 (≈ 0.659 µM)	4 (≈ 10.5 µM)	4 (≈ 10.5 µM)	1 (≈ 2.64 µM)	256 (≈ 675 µM)	4 (≈ 10.5 µM)	2 (≈ 5.27 µM)	Active	Active	< 3	Active
Fc1ccc(COc2cccc3c2c2ccccc2n3Cc2nnc(S)o2)c(F)c1	32 (≈ 75.6 µM)	64 (≈ 151 µM)	128 (≈ 302 µM)	64 (≈ 151 µM)	64 (≈ 151 µM)	32 (≈ 75.6 µM)	128 (≈ 302 µM)	16 (≈ 37.8 µM)	256 (≈ 605 µM)	0.25 (≈ 0.59 µM)	64 (≈ 151 µM)	–	–	–	–
Clc1cnc(COc2cccc3[nH]c4ccccc4c23)s1	256 (≈ 813 µM)	256 (≈ 813 µM)	256 (≈ 813 µM)	256 (≈ 813 µM)	256 (≈ 813 µM)	256 (≈ 813 µM)	256 (≈ 813 µM)	256 (≈ 813 µM)	256 (≈ 813 µM)	256 (≈ 813 µM)	256 (≈ 813 µM)	–	–	–	–
